Columns and labels:
[1] = test system: LNCaP, PC-3; details: Shiau et al, 2006; cited from earlier work
[2] = test system: MCF7; details: Arya et al; cited from earlier work
[3] = test system: B16(F10); details: cited from earlier work
[4] = test system: neoplastIc + SA mammary epithelial cells; details: cited from earlier work
[5] = test system: Ras-transformed B9 cells with a defective Complex II; assay: Apoptosis in Ras-transformed B1 and B9 cells (FIG. 4C); format: cell-based, Chinese hamster
Experimental: 4C—After 24 h of treatment with Complex II targeting drugs TTFA or MitoVES, Ras transformed B1 and B9 cells were assessed for apoptosis using the Annexin V binding method.
The following cell lines used in this study were obtained from ATCC, unless specified otherwise: Human T lymphoma cells Jurkat, human mesothelioma cells Meso-I, MM-BI, Ist-Mes, Ist-Mes-2 (Pass, H. I. et al. Characteristics of nine newly derived mesothelioma cell lines. Ann. Thorac. Surg. 59, 835-844 (1995)), human breast cancer cells MCF-7 (erbB2-low) and MDA-MB-453 (erbB2-high), human colorectal cells HCT-116, human hepatocarcinoma cells Huh-7, mouse mesothelioma cells AE17 (Jackaman, C. et al. IL-2 intratumoral immunotherapy enhances CD8+ T cells that mediate destruction of tumor cells and tumor-associated vasculature: a novel mechanism for IL-2. J. Immunol. 171, […] (2003), human non-malignant mesothelial cells Met-5A, […] (Claycomb, W. C. et al. HL-1 cells: a cardiac muscle cell line that contracts and retains phenotypic characteristics of the adult cardiomyocyte. Proc. Natl. Acad. Sci. USA 95, 2979-2984 […]) and H9c2, and the human endothelial-like cells EAhy926 (Edgell, C. J., McDonald, C. C. & Graham, J. B. Permanent cell line expressing human factor VIII-related antigen established by hybridization. Proc. Natl. Acad. Sci. USA 80, 3734-3737 (1983)). Jurkat cells were grown in the RPMI medium while DMEM was used for other malignant cell lines and for Met-5A cells, supplemented with 10% FCS and antibiotics. HL-1 cells, maintained in fibronectin/gelatine-coated dishes, were grown in the Claycomb medium supplemented with noradrenalin (Claycomb, W. C. et al. HL-1 cells: a cardiac muscle cell line that contracts and retains phenotypic characteristics of the adult cardiomyocyte. Proc. Natl. Acad. Sci. USA 95, 2979-2984 […]), EAhy926 cells were grown in complete DMEM supplemented with HAT (Edgell, C. J., McDonald, C. C. & Graham, J. B. Permanent cell line expressing human factor VIII-related antigen established by hybridization. Proc. Natl. Acad. Sci. USA 80, 3734-3737 (1983)). Cells deficient in mtDNA (ρ^0 phenotype) were prepared as detailed in Weber, T. et al., (Mitochondria play a central role in apoptosis induced by α-tocopheryl succinate, an agent with anticancer activity. Comparison with receptor-mediated pro-apoptotic signaling. Biochemistry 42, 4277-4291 (2003)). Acquisition of the ρ^0 phenotype was confirmed by lack of expression by the cells of the mtDNA-encoded cytochrome c oxidase subunit II (COXII not shown). […]

[6] = test system: MCF-7; assay: MTT viability assay (IC50); format: cell-based, human; details: MCF-7, ~60% confluency
Source text: (§1) The following cell lines used in this study were obtained from ATCC, unless specified otherwise: Human T lymphoma cells Jurkat, human mesothelioma cells Meso-I, MM-BI, Ist-Mes, Ist-Mes-2 (Pass, H. I. et al. Characteristics of nine newly derived mesothelioma cell lines. Ann. Thorac. Surg. 59, 835-844 (1995)), human breast cancer cells MCF-7 (erbB2-low) and MDA-MB-453 (erbB2-high), human colorectal cells HCT-116, human hepatocarcinoma cells Huh-7, mouse mesothelioma cells AE17 (Jackaman, C. et al. IL-2 intratumoral immunotherapy enhances CD8+ T cells that mediate destruction of tumor cells and tumor-associated vasculature: a novel mechanism for IL-2. J. Immunol. 171, […] (2003), human non-malignant mesothelial cells Met-5A, […] (Claycomb, W. C. et al. HL-1 cells: a cardiac muscle cell line that contracts and retains phenotypic characteristics of the adult cardiomyocyte. Proc. Natl. Acad. Sci. USA 95, 2979-2984 […]) and H9c2, and the human endothelial-like cells EAhy926 (Edgell, C. J., McDonald, C. C. & Graham, J. B. Permanent cell line expressing human factor VIII-related antigen established by hybridization. Proc. Natl. Acad. Sci. USA 80, 3734-3737 (1983)). Jurkat cells were grown in the RPMI medium while DMEM was used for other malignant cell lines and for Met-5A cells, supplemented with 10% FCS and antibiotics. HL-1 cells, maintained in fibronectin/gelatine-coated dishes, were grown in the Claycomb medium supplemented with noradrenalin (Claycomb, W. C. et al. HL-1 cells: a cardiac muscle cell line that contracts and retains phenotypic characteristics of the adult cardiomyocyte. Proc. Natl. Acad. Sci. USA 95, 2979-2984 […]), EAhy926 cells were grown in complete DMEM supplemented with HAT (Edgell, C. J., McDonald, C. C. & Graham, J. B. Permanent cell line expressing human factor VIII-related antigen established by hybridization. Proc. Natl. Acad. Sci. USA 80, 3734-3737 (1983)). Cells deficient in mtDNA (ρ^0 phenotype) were prepared as detailed in Weber, T. et al., (Mitochondria play a central role in apoptosis induced by α-tocopheryl succinate, an agent with anticancer activity. Comparison with receptor-mediated pro-apoptotic signaling. Biochemistry 42, 4277-4291 (2003)). Acquisition of the ρ^0 phenotype was confirmed by lack of expression by the cells of the mtDNA-encoded cytochrome c oxidase subunit II (COXII not shown). Chinese hamster lung fibroblasts deficient in complex I (B10 cells) (See, B. B. et al. Molecular remedy of complex I defects: rotenone-insensitive internal NADH-quinone oxidoreductase of Saccharomyces cerevisiae mitochondria restores the NADH oxidase activity of complex I-deficient mammalian cells. Proc. Natl. Acad. Sci. USA 95, 9167-9171 (1998)) and complex II (CybL^−/−; B9 cells) (Oostveen, F. G., Au, H. C., Meijer, P. J. & Scheffler, I. E. A Chinese hamster mutant cell line with a defect in the integral membrane protein CII-3 of complex II of the mitochondrial electron transport chain. J. Biol. Chem. 270: 26104-26108 (1995)) as well as the parental cells (B1 cells) (Oostveen, F. G., Au, H. C., Meijer, P. J. & Scheffler, I. E. A Chinese hamster mutant cell line with a defect in the integral membrane protein CII-3 of complex II of the mitochondrial electron transport chain. J. Biol. Chem. 270: 26104-26108 (1995)) were grown in DMEM with 10% FCS, antibiotics, 10 mg/ml glucose and non-essential aminoacids.
(§2) Toxicity of α-TOS, VE11S (“VES”), MitoVE3S, MitoVE5S, MitoVE7S, MitoVE9S, MitoVE11S (“MitoVES”), MitoVE11AE (“MitoVEAE”), MitoVE11F (“MitoVEF”), MitoVE11M (“MitoVEM”), and VES4TPP towards cancer cells was assessed on the basis of IC50, as detailed in Turanek, J., et al. ((2008). Liposomal formulation of vitamin E analogs as an efficient and selective anti-cancer treatment. Clin. Cancer Res. (submitted)). […]

[7] = test system: Meso-2; assay: MTT viability assay (IC50); format: cell-based, human; details: Meso-2, ~60% confluency
Source text: as §1, §2

[8] = test system: Jurkat; assay: MTT viability assay (IC50); format: cell-based, human
Source text: as §1, §2

[9] = test system: HL-1; assay: MTT viability assay (IC50); format: cell-based, rat; details: HL-1, ~60% confluency
Source text: as §1, §2

[10] = test system: H9c2; assay: MTT viability assay (IC50); format: cell-based, rat; details: H9c2, ~60% confluency
Source text: as §1, §2

[11] = target: T1, α-tocopherol transfer protein (α-TTP) (Rattus norvegicus, UniProt P41034); details: Hosomi et al 1997; cited from earlier work
T1 sequence (P41034 1-278): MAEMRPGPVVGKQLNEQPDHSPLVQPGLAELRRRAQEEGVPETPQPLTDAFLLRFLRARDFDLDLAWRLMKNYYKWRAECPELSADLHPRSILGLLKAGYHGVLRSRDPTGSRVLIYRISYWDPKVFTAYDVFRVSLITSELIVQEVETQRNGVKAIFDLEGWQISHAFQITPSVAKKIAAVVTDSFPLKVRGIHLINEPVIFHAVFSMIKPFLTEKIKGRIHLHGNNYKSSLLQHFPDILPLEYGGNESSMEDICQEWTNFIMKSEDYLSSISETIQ

[12] = Table VI: Jurkat 0.5 × 10^6 per ml, analogs added as EtOH solution, MTT

For `Cc1c(C)c2c(c(C)c1OC(=O)CCC(=O)O)CCC(C)(CCCC(C)CCCC(C)C)O2` (centres unmarked) [Nr 43], which IC50 [1] is on record?
The IC50 was 4 to 9 µM.

Which IC50 [1] does the source give for `Cc1c(C)c2c(c(C)c1OCCC(=O)O)CCC(C)(CCCC(C)CCCC(C)C)O2` (centres unmarked) [Nr 44] here?
Its IC50 is 4 to 8 µM.

With `Cc1c(C)c2c(c(C)c1OC(=O)CCC(=O)O)CCC(C)(C)O2` [Nr 46] as the compound, how does the IC50 [1] read?
Its IC50 is greater than 100 µM.

For `Cc1c(C)c2c(c(C)c1OC(=O)C(N)CCCCN)CCC(C)(CO)O2` (centres unmarked) [Nr 47], which IC50 [2] is on record?
The IC50 was 194 µM.

With `CCCCCOCC1(C)CCc2c(C)c(OC(=O)C(N)CCCCN)c(C)c(C)c2O1` (centres unmarked) [Nr 48] as the compound, how does the IC50 [2] read?
Its IC50 is 22 µM.

Which IC50 [2] does the source give for `CCCCC(=O)OCC1(C)CCc2c(C)c(OC(=O)C(N)CCCCN)c(C)c(C)c2O1` (centres unmarked) [Nr 49] here?
The IC50 was 15 µM.

For `CC(C)=CCCC(C)=CCCC(C)=CCCC1(C)CCc2cc(O)c(C)c(C)c2O1` (centres unmarked) [Nr 56], which IC50 [3] is on record?
Its IC50 is 20 µM.

And the IC50 [4]?
The IC50 was 4 µM.

Which IC50 [3] does the source give for `CC(C)=CCCC(C)=CCCC(C)=CCCC1(C)CCc2cc(O)cc(C)c2O1` (centres unmarked) [Nr 59] here?
Its IC50 is 10 µM.

For `CC(C)=CCCC(C)=CCCC(C)=CCCC1(C)CCc2cc(O)ccc2O1` (centres unmarked) [Nr 60], which IC50 [3] is on record?
Its IC50 is 0.9 µM.

Which results are given for `O=C(CC(=O)C(F)(F)F)c1cccs1` [TTFA, reference compound]?
sensitivity to apoptosis of Ras-transformed B9 cells compared to Ras-transformed B1 cells ([5]; 24 h treatment, Annexin V binding): much less sensitive; sensitivity after reconstitution of Complex II function (human SDHC) in Ras-transformed B9 cells ([5]; B9 cells transfected to express human SDHC): restored the sensitivity

With `Cc1c(C)c2c(c(C)c1OC(=O)CCC(=O)OCCCC[P+](c1ccccc1)(c1ccccc1)c1ccccc1)CCC(C)(CCCC(C)CCCC(C)CCCC(C)C)O2` (centres unmarked) [VES4TPP] as the compound, how does the IC50 [6] read?
The IC50 was 19 ± 3 µM.

What about the IC50 [7] of the same compound?
Its IC50 is 28 ± 6 µM.

And the IC50 ([8]; Jurkat, treated at 0.5 × 10^6 per ml, MTT viability curves)?
The IC50 was 21 ± 5 µM.

And the IC50 [8, 12]?
The IC50 was 21 ± 5 µM.

And the IC50 [9]?
The IC50 was greater than 100 µM.

And the IC50 [10]?
The IC50 was greater than 100 µM.

For `Cc1c(C)c2c(c(C)c1O)CC[C@@](C)(CCC[C@H](C)CCC[C@H](C)CCCC(C)C)O2` [α-TOH, α-tocopherol, reference compound], which IC50 [8, 12] is on record?
Its IC50 is greater than 100 µM.

And the “relative affinities for α-TTP” value [11]?
Its value is 100%.

For `Cc1cc(O)c(C)c2c1O[C@](C)(CCC[C@H](C)CCC[C@H](C)CCCC(C)C)CC2` [β-tocopherol], which “relative affinities for α-TTP” value [11] is on record?
Its value is 38%.

Which “relative affinities for α-TTP” value [11] does the source give for `Cc1c(O)cc2c(c1C)O[C@](C)(CCC[C@H](C)CCC[C@H](C)CCCC(C)C)CC2` [γ-tocopherol] here?
The value was 9%.

Which “relative affinities for α-TTP” value [11] does the source give for `Cc1cc(O)cc2c1O[C@](C)(CCC[C@H](C)CCC[C@H](C)CCCC(C)C)CC2` [δ-tocopherol] here?
The value was 2%.

Source: US8598145B2, “Mitochondrially delivered anti-cancer compounds” (priority 2008, dated 2013)
